Measured values taken from patent US6387905B2, “Compounds useful for inhibition of farnesyl protein transferase” (Schering Corporation, priority 1996, dated 2002).
Where two headings read alike, the source gives them in different places.

How the values were obtained:
COS Cell = COS Cell IC50 (Cell-Based Assay); details: COS
Protocol: (§1) FPT IC50 (inhibition of farnesyl protein transferase, in vitro enzyme assay) and COS Cell IC50 (Cell-Based Assay) were determined following the assay procedures described in WO 95/10516, published Apr. 20, 1995. GGPT IC50 (inhibition of geranylgeranyl protein transferase, in vitro enzyme assay), Cell Mat Assay, and anti-tumor activity (in vivo anti-tumor studies) could be determined by the assay procedures described in WO 95/10516. The disclosure of WO 95/10516 is incorporated herein by reference thereto.

[1] = target: farnesyl protein transferase (FPT), H-ras (Homo sapiens, UniProt P49354+P49356); test: FPT IC50 (H-ras), inhibition of farnesyl protein transferase, in vitro enzyme assay; format: biochemical
Protocol: as §1

[2] = target: farnesyl protein transferase (FPT), K-ras (Homo sapiens, UniProt P49354+P49356); test: FPT IC50 (K-ras), inhibition of farnesyl protein transferase, in vitro enzyme assay; format: biochemical
Protocol: as §1

Human tumor cells = test: Soft Agar Assay (anchorage-independent growth); format: cell-based; details: Table 5, read-out: Soft Agar IC50
Protocol: Anchorage-independent growth is a characteristic of tumorgenic cell lines. Human tumor cells are suspended in growth medium containing 0.3% agarose and an indicated concentration of a farnesyl transferase inhibitor. The solution is overlayed onto growth medium solidified with 0.6% agarose containing the same concentration of farnesyl transferase inhibitor as the top layer. After the top layer is solidified, plates are incubated for 10-16 days at 37° C. under 5% CO2 to allow colony outgrowth. After incubation, the colonies are stained by overlaying the agar with a solution of MTT (3-[4,5-dimethyl-thiazol-2-yl]-2,5-diphenyltetrazolium bromide, Thiazolyl blue) (1 mg/mL in PBS). Colonies can be counted and the IC50's can be determined.

[3] = Table 3, read-out: COS Cell IC50
[4] = Table 5, read-out: Cos Cell IC50
[5] = Table 3, H-ras, read-out: FPT IC50 (nM) (H-ras)
[6] = H-ras, read-out: FPT IC50 (H-ras)

| SMILES | IC50 (COS Cell; [3]) [nM] | IC50 (COS Cell; [4]) [nM] | IC50 [1, 5] [nM] | IC50 [2] [nM] | IC50 (Human tumor cells; Homo sapiens) [nM] | IC50 (Human tumor cells; listed as 12.1) [nM] | melting point [°C] | IC50 ([1]; Table 4, read-out: FPT IC50) [nM] | IC50 [1, 6] [nM] |
| --- | --- | --- | --- | --- | --- | --- | --- | --- | --- |
| CC(C)(C)OC(=O)N[C@@H](Cc1c[nH]cn1)C(=O)N1CCC(CC(=O)N2CCC([C@H]3c4ncc(Br)cc4CCc4cc(Cl)cc(Br)c43)CC2)CC1 [Example 8] | 125 | 125 | 7.4 | 41 | – | – | – | – | – |
| O=C(CC1CCN(C(=O)[C@@H]2CCCN2)CC1)N1CCC([C@H]2c3ncc(Br)cc3CCc3cc(Cl)cc(Br)c32)CC1 [Example 12] | 55 | – | 4.4 | 35 | 250 | – | – | – | – |
| CN(C)CC(=O)N1CCC(CC(=O)N2CCC(C3c4ncc(Br)cc4CCc4cc(Cl)cc(Br)c43)CC2)CC1 (single isomer, unassigned; (+)) [Example 21] | 10 | – | 2.5 | 19.4 | 160 | 90 | – | – | – |
| CCOC(=O)CC(=O)N1CCC(CC(=O)N2CCC([C@H]3c4ncc(Br)cc4CCc4cc(Cl)cc(Br)c43)CC2)CC1 [Example 30] | – | – | – | – | – | – | 77.2 to 78.1 | 2.8 | – |
| N[C@@H](Cc1c[nH]cn1)C(=O)N1CCC(CC(=O)N2CCC([C@H]3c4ncc(Br)cc4CCc4cc(Cl)cc(Br)c43)CC2)CC1 [Example 11] | – | – | 15 | 49 | – | – | – | – | – |
| COC(=O)CCC(=O)N1CCC(CC(=O)N2CCC(C3c4ncc(Br)cc4CCc4cc(Cl)cc(Br)c43)CC2)CC1 (single isomer, unassigned; (+)) [Example 25] | 39 | – | 5.1 | – | 250 | – | 114 to 115 | – | – |
| N[C@@H](Cc1ccccc1)C(=O)N1CCC(CC(=O)N2CCC([C@H]3c4ncc(Br)cc4CCc4cc(Cl)cc(Br)c43)CC2)CC1 [Example 10] | 300 | – | 8.3 | 71.2 | – | – | – | – | – |
| C[C@H](N)C(=O)N1CCC(CC(=O)N2CCC([C@H]3c4ncc(Br)cc4CCc4cc(Cl)cc(Br)c43)CC2)CC1 [Example 4] | 140 | 140 | – | 23.8 | – | – | – | – | 5.2 |
| CN(C)CCCC(=O)N1CCC(CC(=O)N2CCC(C3c4ncc(Br)cc4CCc4cc(Cl)cc(Br)c43)CC2)CC1 (single isomer, unassigned; (+)) [Example 19] | – | – | 35 | – | – | – | 69 to 71 | – | – |
| CCOC(=O)CC(=O)N1CCC(CC(=O)N2CCC(C3c4ncc(Br)cc4CCc4cc(Cl)cc(Br)c43)CC2)CC1 (single isomer, unassigned; (+)) [Example 26] | 125 | – | < 2 | – | – | – | 77 to 78 | – | – |
| CN(C)CCC(=O)N1CCC(CC(=O)N2CCC(C3c4ncc(Br)cc4CCc4cc(Cl)cc(Br)c43)CC2)CC1 (single isomer, unassigned; (+)) [Example 20] | 10 | – | 5.8 | 19.8 | 190 | – | 82 to 84 | – | – |
| C[C@@H](N)C(=O)N1CCC(CC(=O)N2CCC([C@H]3c4ncc(Br)cc4CCc4cc(Cl)cc(Br)c43)CC2)CC1 [Example 6] | 39 | 39 | – | 31 | 200 | – | – | – | 8.1 |
| CC(C)(C)OC(=O)NCC(=O)N1CCC(CC(=O)N2CCC([C@H]3c4ncc(Br)cc4CCc4cc(Cl)cc(Br)c43)CC2)CC1 [Example 1] | – | – | 12.3 | 43.2 | – | – | – | – | – |
| CC(C)(C)OC(=O)N1CCC[C@H]1C(=O)N1CCC(CC(=O)N2CCC([C@H]3c4ncc(Br)cc4CCc4cc(Cl)cc(Br)c43)CC2)CC1 [Example 9] | 700 | – | 11.6 | 34.8 | – | – | – | – | – |
| C[C@H](NC(=O)OC(C)(C)C)C(=O)N1CCC(CC(=O)N2CCC([C@H]3c4ncc(Br)cc4CCc4cc(Cl)cc(Br)c43)CC2)CC1 [Example 3] | – | – | 6.3 | 30 | – | – | – | – | – |
| COC(=O)CCCC(=O)N1CCC(CC(=O)N2CCC(C3c4ncc(Br)cc4CCc4cc(Cl)cc(Br)c43)CC2)CC1 (single isomer, unassigned; (+)) [Example 24] | 10 | – | 4.8 | – | – | – | 101 to 102 | – | – |
| O=C(CCN1CCCCC1)N1CCC(CC(=O)N2CCC(C3c4ncc(Br)cc4CCc4cc(Cl)cc(Br)c43)CC2)CC1 (single isomer, unassigned; (+)) [Example 22] | 43 | – | < 2.6 | – | – | – | 127 to 128 | – | – |
| C[C@@H](NC(=O)OC(C)(C)C)C(=O)N1CCC(CC(=O)N2CCC([C@H]3c4ncc(Br)cc4CCc4cc(Cl)cc(Br)c43)CC2)CC1 [Example 5] | – | – | 8.4 | 22 | – | – | – | – | – |
